Laboratory results as given in patent publication US20080306128A1, “Preparation of Hydrochloride Salts of Tetrazole Derivative” (priority 2004, published 2008).

Test: stability of the new salt form on longer heating at increased temperatures
Type: physicochemical

## CCCCC1=NC2(CCCC2)C(=O)N1Cc1ccc(-c2ccccc2-c2nnn[nH]2)cc1.Cl [2-butyl-1-[2′-(1H-tetrazol-5-yl)bifenyl-4-yl-methyl]spiro[2-imidazoline-4.1′-cyclopentane]-5-one hydrochloride]
  stability (decomposition on heating): does not decompose
